Assay results: patent US11678682B2, “Phosphor composition having selected surface coatings” (IMMUNOLIGHT, LLC, priority 2013, dated 2023)
Like-named read-outs stand apart in the source and are kept apart here.

Columns and labels:
cells = cells kept in the dark compared to those exposed to light; cited from earlier work
B16 cancer cells = test: Clonogenic cell kill (surviving colonies) with x-ray stimulated phosphor mixtures with and without psoralen (AMT); format: cell-based
Source text: Accordingly, combinations of more than two “visible” phosphors can be used in this invention. Discussed below are x-ray settings and mass ratios for clonogenic cell kill experiments. F1 refers to the insertion of an aluminum filter into the x-ray beam to act as a filter.
Psoralen is known to be activated by UV light in the range from 300 to 400 nm. Thus, a measure of cell kill would normally be assumed to be an indirect measure of the internal generation of UV light.
FIGS. 18A and 18B is a plotted cell kill comparison (shown here as the number of surviving colonies) between B16 cancer cells treated with and without psoralen (i.e., AMT) with different phosphor mixtures, but otherwise being x-ray stimulated and containing the multiple phosphor combinations noted above. On these drawings, LDLE=low xRT dose, low energy; HDHE=high xRT dose, high energy.

[1] = system: cisplatin-resistant cells; details: photolyzed complex; cited from earlier work
[2] = system: human bladder cancer cells; details: cited from earlier work

NCCN.[Cl][Pt]([Cl])([I])[I] [[PtCl2I2(en)]]
cytotoxicity, dark versus light (cells): no difference in cytotoxicity

O=c1ccc2cc3ccoc3cc2o1 [psoralen]
cell kill (number of surviving colonies), with versus without psoralen (FIGS. 18A and 18B) (B16 cancer cells; B16 cells, x-ray stimulated RYG/FYG phosphor mixtures): improved cell kill
clonogenic colony survival, with versus without psoralen (FIG. 19C) (B16 cancer cells; flamingo, yellow, green FYG phosphor combination): pronounced cell kill
cell kill, with versus without psoralen (FIGS. 19A and 19B) (B16 cancer cells; higher kVp x-ray conditions): does not show an increased kill

Cis,trans,cis-[Pt(N3)2(OH)2(NH3)2]
growth inhibition [1]: inhibits the growth
growth inhibition ([2]; cells treated with the complex and kept in the dark): very little growth inhibition
growth inhibition ([2]; photolyzed complex): inhibits the growth
